# Key:
# [1] = tested on: white spot syndrome virus (WSSV); assay: Mortality in shrimp following WSSV challenge; assay type: in vivo
# Protocol: The fourth study evaluated dietary alpha-lipoic acid at 650 mg/kg compared to control basal diet fed shrimp for resistance to white spot syndrome virus disease (WSSV). The experiment was carried out under standard conditions for shrimp. Pre-feeding experimental diets for ˜4 weeks. Mortality was recorded daily.
# Noda Virus (VNN) = assay: Mortality in Sea Bass fry following VNN (Noda virus) challenge by cohabitation; assay type: in vivo
# Protocol: The seventh study evaluated dietary alpha-lipoic acid (LA) at 250, 500 and 750 mg/kg compared to control basal diet fed fish in Sea Bass fry. Pre-feeding experimental diets for 5-6 weeks, growing from ˜0.7 g to ˜1.4 g. Water temperature at 25° C. 133 fish per diet (tank). Disease challenge by cohabitation with fish infected with Noda Virus (VNN). This was intended to transmit the infection to the test groups. Mortality was recorded daily.
# lymphocytes = assay: Apoptosis of lymphocytes from rainbow trout fed LA; assay type: cell-based
# Protocol: (§1) Rainbow trout were fed for 4 weeks with graded levels of LA (125, 250 and 500 mg/kg) compared to basal control diet fed fish. A range of functional immune assays of tissues/cells obtained at the end of the feeding period were conducted to investigate the possible mode of action observed in the disease challenge studies.
# The apoptosis pathway (programmed cell death) was investigated by assaying the ability of lymphocytes to prevent apoptosis occurring following incubation with Campto, a chemical stimulator of apoptosis. […] This level of reduction in apoptosis is quite remarkable.
# IPN [2] = assay: Mortality in Atlantic salmon following IPN challenge; assay type: in vivo; conditions: A. salmon
# Protocol: (§2) The first study evaluated dietary alpha-lipoic acid (LA) at 500 mg/kg compared to control basal diet fed fish. Pre-feeding experimental diets for ˜5 weeks, growing from ˜0.2 g to ˜0.5 g in 4 replicate tanks per diet. Water temperature at 12° C.±1° C. Min. 30 fish per diet (tank). Disease challenge by cohabitation with fish infected with Salmon Alfa Virus (SAV).
# (§3) This was intended to transmit the infection to the test groups leading to clinical Pancreas Disease (PD). The challenge lasted for 9.5 weeks (˜2 g), mortality recorded daily.
# The fourth study evaluated dietary alpha-lipoic acid at 3 doses 500, 750 and 1000 mg/kg compared to control basal diet fed fish for resistance to virus disease (IPN). The experiment was carried out as described for the first study.
# [3] = Feed conversion ratio (FCR) in rainbow trout; assay type: in vivo; conditions: for (Cumulative) Feed conversion ratio (FCR), Feed as fed basis (kg)/weight gain (kg), Mean: rainbow trout
# Protocol: This study evaluated dietary alpha-lipoic acid at 3 doses 250, 500 and 1000 mg/kg compared to control basal diet fed fish for feed conversion ratio. Rainbow trout with an initial weight around 50 g were fed for ˜6 weeks with graded levels of LA compared to basal control diet fed fish in 4 replicate tanks per diet with 50 fish per tank. The fish were fed automatically and daily with an excess of experimental diets with regard to feeding instructions for control basal diet and weighted every two weeks. Excess feed was removed daily.
# phagocytes = assay: Oxidative burst of phagocytes from rainbow trout fed LA; assay type: cell-based; conditions: rainbow trout fed 125, 250 and 500 mg/kg for 4 weeks; any treatment group vs control
# Protocol: as §1
# The capacity of Oxidative burst of phagocytes was assayed to assess anti-oxidation or pro-oxidation activity, as widely reported for use of LA (Kutter et al., 2014).
# Salmon Alfa Virus (SAV) = assay: Mortality in Atlantic salmon fry following SAV challenge by cohabitation (Pancreas Disease); assay type: in vivo; conditions: for survival compared to control diet fed fish / Relative Percent Survival (RPS): Study 2, SAV challenge; for end mortality compared to control: Study 3, all three SAV challenge trials
# Protocol: as §2, §3
# The second study evaluated dietary alpha-lipoic acid at 3 doses 125, 250 and 500 mg/kg compared to control basal diet fed fish for resistance to virus disease (PD). The experiment was carried out as described for the first study.
# In this study three separate virus challenge trials evaluated dietary alpha-lipoic acid at 3 doses 250, 500 and 1000 mg/kg compared to control basal diet fed fish for resistance to virus disease (PD). The experiment was carried out as described for the first study.
# IPN [4] = assay: Performance (growth reduction) of Atlantic salmon following IPN challenge; assay type: in vivo
# Protocol: This study evaluated dietary alpha-lipoic acid at 3 doses 500, 750 and 1000 mg/kg compared to control basal diet fed fish for performance after disease (IPN) challenge in atlantic salmon and was carried out in succession of the fifth study by weighting the fish and comparing the challenged LA and control fed fish with the unchallenged control fed fish.
compound,measurement,setting,value
O=C(O)CCCCC1CCSS1 (stereo not drawn) [alpha-lipoic acid],Mean Survival,[1]; 650 ppm in diet,30.0%
same,Mean mortality,[1]; 650 ppm in diet,70.0%
same,RPS,[1]; 650 ppm in diet vs control,8.7%
same,Mean Survival,Noda Virus (VNN); 250 ppm in diet,84.2%
same,Mean mortality,Noda Virus (VNN); 250 ppm in diet,15.8%
same,RPS,Noda Virus (VNN); 250 ppm in diet vs control,59.6%
same,RPS,"Noda Virus (VNN); 250 ppm in diet vs control, listed as lipoic acid",60%
same,Mean Survival,Noda Virus (VNN); 500 ppm in diet,86.7%
same,Mean mortality,Noda Virus (VNN); 500 ppm in diet,13.3%
same,RPS,Noda Virus (VNN); 500 ppm in diet vs control,66.0%
same,RPS,"Noda Virus (VNN); 500 ppm in diet vs control, listed as lipoic acid",66%
same,Mean Survival,Noda Virus (VNN); 750 ppm in diet,78.3%
same,Mean mortality,Noda Virus (VNN); 750 ppm in diet,21.7%
same,RPS,Noda Virus (VNN); 750 ppm in diet vs control,44.7%
same,RPS,"Noda Virus (VNN); 750 ppm in diet vs control, listed as lipoic acid",45%
same,basal apoptosis activity of lymphocytes,"lymphocytes; no Campto used, LA treatment groups, not significant",trend for lower basal apoptosis activity
same,apoptotic cells (lymphocytes) after incubation with Campto,lymphocytes; rainbow trout fed 500 mg/kg for 4 weeks,significant reduction
same,reduction of apoptotic cells (lymphocytes) after incubation with Campto,"lymphocytes; rainbow trout fed graded levels 125, 250 and 500 mg/kg for 4 weeks",clear dose response
same,RPS,IPN [2]; 500 ppm in diet vs control,7.1%
same,RPS,"IPN [2]; 500 ppm in diet vs control, listed as LA",7%
same,Mean Survival,IPN [2]; 500 ppm in diet,62.0%
same,Mean mortality,IPN [2]; 500 ppm in diet,38.0%
same,RPS,IPN [2]; 750 ppm in diet vs control,27.6%
same,RPS,"IPN [2]; 750 ppm in diet vs control, listed as LA",28%
same,Mean Survival,IPN [2]; 750 ppm in diet,70.4%
same,Mean mortality,IPN [2]; 750 ppm in diet,29.6%
same,RPS,IPN [2]; 1000 ppm in diet vs control,−1.0%
same,RPS,"IPN [2]; 1000 ppm in diet vs control, listed as LA",−1%
same,Mean Survival,IPN [2]; 1000 ppm in diet,58.7%
same,Mean mortality,IPN [2]; 1000 ppm in diet,41.3%
same,"(Cumulative) Feed conversion ratio (FCR), Feed as fed basis (kg)/weight gain (kg), Mean","[3]; AL 250, period 0-15 days",0.65
same,"(Cumulative) Feed conversion ratio (FCR), Feed as fed basis (kg)/weight gain (kg), Mean","[3]; AL 250, period 0-30 days",0.67
same,"(Cumulative) Feed conversion ratio (FCR), Feed as fed basis (kg)/weight gain (kg), Mean","[3]; AL 250, period 0-44 days",0.67
same,"(Cumulative) Feed conversion ratio (FCR), Feed as fed basis (kg)/weight gain (kg), Mean","[3]; AL 500, period 0-15 days",0.66
same,"(Cumulative) Feed conversion ratio (FCR), Feed as fed basis (kg)/weight gain (kg), Mean","[3]; AL 500, period 0-30 days",0.67
same,"(Cumulative) Feed conversion ratio (FCR), Feed as fed basis (kg)/weight gain (kg), Mean","[3]; AL 500, period 0-44 days",0.68
same,"(Cumulative) Feed conversion ratio (FCR), Feed as fed basis (kg)/weight gain (kg), Mean","[3]; AL 1000, period 0-15 days",0.65
same,"(Cumulative) Feed conversion ratio (FCR), Feed as fed basis (kg)/weight gain (kg), Mean","[3]; AL 1000, period 0-30 days",0.67
same,"(Cumulative) Feed conversion ratio (FCR), Feed as fed basis (kg)/weight gain (kg), Mean","[3]; AL 1000, period 0-44 days",0.68
same,feed conversion ratios compared to control diet fed fish,"[3]; rainbow trout fed 250, 500 and 1000 mg/kg for ~6 weeks",improved
same,extracellular or intracellular oxidative burst of phagocytes,phagocytes,no significant difference
same,relative percent survival (RPS) compared to control diet,"Salmon Alfa Virus (SAV); Study 1, 500 mg/kg feed, A. salmon fry, SAV challenge 9.5 weeks",63%
same,survival compared to control diet fed fish,Salmon Alfa Virus (SAV); 125 mg/kg,no observed effect
same,survival compared to control diet fed fish,Salmon Alfa Virus (SAV); 250 mg/kg,tendency for improved survival but this was not statistically significant
same,Relative Percent Survival (RPS),"Salmon Alfa Virus (SAV); 125 ppm in diet vs control, A. salmon fry",−17%
same,Relative Percent Survival (RPS),"Salmon Alfa Virus (SAV); 250 ppm in diet vs control, A. salmon fry",8%
same,Relative Percent Survival (RPS),"Salmon Alfa Virus (SAV); 500 ppm in diet vs control, A. salmon fry",34%
same,Relative Percent Survival (RPS),"Salmon Alfa Virus (SAV); 500 ppm in diet vs control, A. salmon fry, listed as LA",34%
same,end mortality compared to control,Salmon Alfa Virus (SAV); high dose 1000 mg/kg,significantly reduced
same,end mortality compared to control,Salmon Alfa Virus (SAV); medium dose 500 mg/kg,significantly reduced
same,performance compared to challenged control diet fed fish,IPN [4]; 500 mg/kg,performed better
same,performance compared to challenged control diet fed fish,IPN [4]; 750 mg/kg,significantly better performance
same,performance compared to challenged control diet fed fish,IPN [4]; 1000 mg/kg,did not perform significantly better
